Each structure is given as a SMILES string. Like-named read-outs stand apart in the source and are kept apart here.

This test has as its target T1, SFRP-1 (Homo sapiens, UniProt Q8N474).
T1 sequence (Q8N474 32-314): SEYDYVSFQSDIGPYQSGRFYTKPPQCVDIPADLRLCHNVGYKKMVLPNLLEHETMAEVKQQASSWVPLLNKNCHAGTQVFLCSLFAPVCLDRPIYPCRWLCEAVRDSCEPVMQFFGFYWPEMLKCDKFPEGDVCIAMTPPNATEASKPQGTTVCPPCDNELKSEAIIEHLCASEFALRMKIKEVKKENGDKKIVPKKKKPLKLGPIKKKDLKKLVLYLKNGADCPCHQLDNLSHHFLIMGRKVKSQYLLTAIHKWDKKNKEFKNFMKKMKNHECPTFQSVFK
Description: Cell-based assay for in vitro measurement of SFRP-1/SARP2 antagonist activity (U2OS cells co-transfected with 16x TCF-tk-Luciferase reporter, Wnt and hSFRP-1).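 Note: U2OS cells co-transfected with a TCF-tk luciferase reporter, a Wnt vector, hSFRP-1 or empty vector and CMV-βgal, luciferase luminescence read in cell lysates alongside βgal activity.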 The note with it: U2OS.

Where [1] appears, read: read-out: Fold Induction with SFRP-1, Conc 15 μM, with SFRP-1, fold induction over SFRP-1 control, single dose.
The mark [2] stands for this setting: read-out: Fold Induction without SFRP-1, Conc 15 μM, without SFRP-1, single dose.

With `Cc1ccc(S(=O)(=O)c2ccc(Cl)c(Cl)c2)cc1S(=O)(=O)NCCCn1ccnc1` [Example 340, 5-[(3,4-dichlorophenyl)sulfonyl]-N-[3-(1H-imidazol-1-yl)propyl]-2-methylbenzenesulfonamide], the fold induction at 15 µM reads like this: under setting [1], 2.5; under setting [2], 1.

In the case of `CC(C)(O)Cc1ccc(S(=O)(=O)c2ccccc2)cc1S(=O)(=O)NCCc1ccccc1` [Example 341, 2-(2-hydroxy-2-methylpropyl)-N-(2-phenylethyl)-5-(phenylsulfonyl)benzenesulfonamide], the fold induction at 15 µM is, setting by setting: under setting [1], 1.5; under setting [2], 1.1.

As to `Cc1ccc(S(=O)(=O)c2cccc(Cl)c2)cc1S(=O)(=O)NCCCn1ccnc1` [Example 342, 5-[(3-chlorophenyl)sulfonyl]-N-[3-(1H-imidazol-1-yl)propyl]-2-methylbenzenesulfonamide], the fold induction at 15 µM runs as follows: under setting [1], 3.3; under setting [2], 1.1.

Regarding `Cc1cc(C)cc(S(=O)(=O)c2ccc(C)c(S(=O)(=O)NCCCn3ccnc3)c2)c1` [Example 343, 5-[(3,5-dimethylphenyl)sulfonyl]-N-[3-(1H-imidazol-1-yl)propyl]-2-methylbenzenesulfonamide], the fold induction at 15 µM reads like this: under setting [1], 2.8; under setting [2], 1.

`Cc1ccc(S(=O)(=O)c2cc(Cl)ccc2Cl)cc1S(=O)(=O)NCCCn1ccnc1` [Example 345, 5-[(2,5-dichlorophenyl)sulfonyl]-N-[3-(1H-imidazol-1-yl)propyl]-2-methylbenzenesulfonamide]: the fold induction at 15 µM by setting is: under setting [1], 1.6; under setting [2], 1.

Turning to `Cc1ccc([S+]([O-])c2ccccc2)cc1S(=O)(=O)NCCCn1ccnc1` (stereo not shown) [Example 346, N-[3-(1H-imidazol-1-yl)propyl]-2-methyl-5-(phenylsulfinyl)benzenesulfonamide], the fold induction at 15 µM runs as follows: under setting [1], 2.4; under setting [2], 1.3.

For the compound `Cc1cc(S(=O)(=O)c2ccccc2)cc(S(=O)(=O)NCCn2ccnc2)c1C` [Example 347, N-[2-(1H-imidazol-1-yl)ethyl]-2,3-dimethyl-5-(phenylsulfonyl)benzenesulfonamide], the fold induction at 15 µM came out at 2.9 under setting [1] and 1.1 under setting [2].

On to `Cc1cc(S(=O)(=O)c2ccccc2)cc(S(=O)(=O)NCCCn2ccnc2)c1C` [Example 348, N-[3-(1H-imidazol-1-yl)propyl]-2,3-dimethyl-5-(phenylsulfonyl)benzenesulfonamide], for which the fold induction at 15 µM runs as follows: under setting [1], 2.5; under setting [2], 1.2.

Consider `Cc1cc(S(=O)(=O)c2ccccc2)cc(S(=O)(=O)NCCc2ccccn2)c1C` [Example 349, 2,3-dimethyl-5-(phenylsulfonyl)-N-(2-pyridin-2-ylethyl)benzenesulfonamide], for which the fold induction at 15 µM under setting [1] is 2 and the fold induction at 15 µM under setting [2] is 1.2.

Regarding `Cc1cc(S(=O)(=O)c2ccccc2)cc(S(=O)(=O)NC2CCOCC2)c1C` [Example 350, 2,3-dimethyl-5-(phenylsulfonyl)-N-(tetrahydro-2H-pyran-4-yl)benzenesulfonamide], the fold induction at 15 µM is, setting by setting: under setting [1], 1.8; under setting [2], 1.3.

For the compound `Cc1cc(S(=O)(=O)c2ccccc2)cc(S(=O)(=O)NCCC2CCOCC2)c1C` [Example 351, 2,3-dimethyl-5-(phenylsulfonyl)-N-[2-(tetrahydro-2H-pyran-4-yl)ethyl]benzenesulfonamide], the fold induction at 15 µM was 1.5 under setting [1] and 1.3 under setting [2].

Consider `Cc1ccc(S(=O)(=O)c2ccc(NC3CCCCC3)cc2)cc1S(=O)(=O)NCCCn1ccnc1` [Example 352, 5-{[4-(cyclohexylamino)phenyl]sulfonyl}-N-[3-(1H-imidazol-1-yl)propyl]-2-methylbenzenesulfonamide], for which the fold induction at 15 µM by setting is: under setting [1], 1.7; under setting [2], 1.

Take `Cc1ccc(S(=O)(=O)c2ccc(NC(C)c3ccccc3)cc2)cc1S(=O)(=O)NCCCn1ccnc1` (stereo not shown) [Example 355, N-[3-(1H-imidazol-1-yl)propyl]-2-methyl-5-({4-[(1-phenylethyl)amino]phenyl}sulfonyl)benzenesulfonamide]: the fold induction at 15 µM was found to be 3.4 under setting [1] and 0.9 under setting [2].

In the case of `O=S(=O)(NC1CCOCC1)c1cc(S(=O)(=O)c2ccccc2)ccc1Cl` [Example 361, 2-chloro-5-(phenylsulfonyl)-N-(tetrahydro-2H-pyran-4-yl)benzenesulfonamide], the fold induction at 15 µM under setting [1] came out at 2.3 and the fold induction at 15 µM under setting [2] came out at 0.9.

For the compound `Cc1ccc(S(=O)(=O)c2cccs2)cc1S(=O)(=O)NCCCn1ccnc1` [Example 362, N-[3-(1H-imidazol-1-yl)propyl]-2-methyl-5-(2-thienylsulfonyl)benzenesulfonamide], the fold induction at 15 µM by setting is: under setting [1], 2.4; under setting [2], 1.1.

In the case of `Cc1ccc(S(=O)(=O)c2ccoc2C)cc1S(=O)(=O)NCCCn1ccnc1` [Example 363, N-[3-(1H-imidazol-1-yl)propyl]-2-methyl-5-[(2-methyl-3-furyl)sulfonyl]benzenesulfonamide], the fold induction at 15 µM is, setting by setting: under setting [1], 2.1; under setting [2], 1.1.

Consider `Cc1ccc(S(=O)(=O)c2ccccc2)cc1S(=O)(=O)NC(=O)[C@@H](N)Cc1ccccc1` [Example 364, N-{[2-methyl-5-(phenylsulfonyl)phenyl]sulfonyl}-L-phenylalaninamide], for which the fold induction at 15 µM runs as follows: under setting [1], 1.2; under setting [2], 1.

As for `COC(=O)[C@@H](Cc1ccccc1)NS(=O)(=O)c1cc(S(=O)(=O)c2ccccc2)ccc1C` [Example 365, methyl N-{[2-methyl-5-(phenylsulfonyl)phenyl]sulfonyl}-D-phenylalaninate], the fold induction at 15 µM is 1.3 under setting [1] and 1.1 under setting [2].

`Cc1ccc(S(=O)(=O)c2ccc(NC3CCOCC3)cc2)cc1S(=O)(=O)NCCCn1ccnc1` [Example 366, N-[3-(1H-imidazol-1-yl)propyl]-2-methyl-5-{[4-(tetrahydro-2H-pyran-4-ylamino)phenyl]sulfonyl}benzenesulfonamide]: the fold induction at 15 µM runs as follows: under setting [1], 2.4; under setting [2], 1.

As to `Cc1ccc(S(=O)(=O)c2ccc(NCCCOC(C)C)cc2)cc1S(=O)(=O)NCCCn1ccnc1` [Example 367, N-[3-(1H-imidazol-1-yl)propyl]-5-({4-[(3-isopropoxypropyl)amino]phenyl}sulfonyl)-2-methylbenzenesulfonamide], the fold induction at 15 µM amounted to 2.2 under setting [1] and 0.9 under setting [2].

Regarding `Cc1ccc(S(=O)(=O)c2ccc(N[C@@H]3C[C@H]4CC[C@@H]3C4)cc2)cc1S(=O)(=O)NCCCn1ccnc1` [Example 369, 5-({4-[(1R,2R,4S)-bicyclo[2.2.1]hept-2-ylamino]phenyl}sulfonyl)-N-[3-(1H-imidazol-1-yl)propyl]-2-methylbenzenesulfonamide], the fold induction at 15 µM under setting [1] was 1.9 and the fold induction at 15 µM under setting [2] worked out at 0.7.

For the compound `Cc1ccc(S(=O)(=O)c2ccc(NCc3ccc(C(F)(F)F)cc3)cc2)cc1S(=O)(=O)NCCCn1ccnc1` [Example 374, N-[3-(1H-imidazol-1-yl)propyl]-2-methyl-5-[(4-{[4-(trifluoromethyl)benzyl]amino}phenyl)sulfonyl]benzenesulfonamide], the fold induction at 15 µM is 1.5 under setting [1] and 0.9 under setting [2].

Regarding `Cc1ccc(S(=O)(=O)c2ccc(Br)cc2)cc1S(=O)(=O)NC1CCOCC1` [Example 375, 5-[(4-bromophenyl)sulfonyl]-2-methyl-N-(tetrahydro-2H-pyran-4-yl)benzenesulfonamide], the fold induction at 15 µM is 1.9 under setting [1] and 0.9 under setting [2].

On to `Cc1ccc(S(=O)(=O)c2ccc(C#N)cc2)cc1S(=O)(=O)NC1CCOCC1` [Example 376, 5-[(4-cyanophenyl)sulfonyl]-2-methyl-N-(tetrahydro-2H-pyran-4-yl)benzenesulfonamide], for which the fold induction at 15 µM by setting is: under setting [1], 1.5; under setting [2], 1.1.

Consider `Cc1ccc(S(=O)(=O)c2ccccc2Cl)cc1S(=O)(=O)NCCCn1ccnc1` [Example 377, 5-[(2-chlorophenyl)sulfonyl]-N-[3-(1H-imidazol-1-yl)propyl]-2-methylbenzenesulfonamide], for which the fold induction at 15 µM by setting is: under setting [1], 1.9; under setting [2], 1.1.

Regarding `Cc1ccc(S(=O)(=O)c2ccccn2)cc1S(=O)(=O)NCCCn1ccnc1` [Example 378, N-[3-(1H-imidazol-1-yl)propyl]-2-methyl-5-(pyridin-2-ylsulfonyl)benzenesulfonamide], the fold induction at 15 µM by setting is: under setting [1], 1.7; under setting [2], 1.1.

Turning to `Cc1ccc(S(=O)(=O)c2ccc(Cl)cc2Cl)cc1S(=O)(=O)NCCCn1ccnc1` [Example 379, 5-[(2,4-dichlorophenyl)sulfonyl]-N-[3-(1H-imidazol-1-yl)propyl]-2-methylbenzenesulfonamide], the fold induction at 15 µM by setting is: under setting [1], 1.8; under setting [2], 0.9.

`CC(=O)c1ccc(S(=O)(=O)c2ccc(C)c(S(=O)(=O)NC3CCOCC3)c2)cc1` [Example 380, 5-[(4-acetylphenyl)sulfonyl]-2-methyl-N-(tetrahydro-2H-pyran-4-yl)benzenesulfonamide]: the fold induction at 15 µM came out at 0.5 under setting [1] and 0.6 under setting [2].

`Cc1ccc(S(=O)(=O)c2ccccc2)cc1S(=O)(=O)NCC1CCOCC1` [Example 382, 2-methyl-5-(phenylsulfonyl)-N-(tetrahydro-2H-pyran-4-ylmethyl)benzenesulfonamide]: the fold induction at 15 µM reads like this: under setting [1], 2.4; under setting [2], 0.9.

For the origin of these results see patent publication US20060276464A1, “Diarylsulfone sulfonamides and use thereof” (Wyeth, priority 2005, published 2006).
